This note sets out measurements from article PMC6273353, “Design, Synthesis and Evaluation of Novel Tacrine-Ferulic Acid Hybrids as Multifunctional Drug Candidates against Alzheimer’s Disease” (Molecules, 2016).

Data set [1] concerns the target T1, AChE (Homo sapiens, UniProt P22303).
T1 construct: purchased Sigma-Aldrich
Nature of the data set: biochemical. As to conditions: for Selectivity Index: Selectivity index = IC50 (BuChE)/IC50 (AChE); for IC50: mean ± SD of three independent experiments. As for the experimental part:
(§1) Five different concentrations (10^−4–10^−9 M) of each compound were tested for the inhibitory activity for AChE and BuChE. 10 μL 0.86 U/mL AChE or BuChE, 60 μL 0.1 M phosphate buffer (pH 8.0), and 10 μL test compounds were incubated together at 37 °C for 10 min. An amount of 20 μL 10 mmol/L […] or butylthicoline iodide was added and the solution was incubated at 37 °C for 10 min again. Then 20 μL 5 mmol/L 5,5′-dithiobis-(2-nitrobenzoic acid) (DTNB) and 30 μL 1% sodium dodecyl sulfatesodium salt (SDS) were added. […] Each concentration was analyzed three times, and the IC50 value was calculated from the concentration-inhibition response curve on logarithmic scale.

Another data set has as its target T2, BuChE (Homo sapiens, UniProt P06276).
T2 construct: purchased Sigma-Aldrich
Briefly: biochemical. As to conditions: mean ± SD of three independent experiments. As for the experimental part:
as §1

Another data set concerns the target T3, Aβ (1–42) (Homo sapiens, UniProt P05067).
T3 construct: An amount of 250 μg Aβ (1–42) was dissolved; purchased Sigma-Aldrich
Nature of the data set: Inhibition of self-induced Aβ (1–42) aggregation, thioflavin T-based fluorometric assay. Format: biochemical. As to conditions: 20 μM compounds, 20 μM Aβ (1–42), 37 °C, 48 h; mean ± SD. As for the experimental part: TFAs 8a–e were tested for their ability to inhibit self-induced Aβ (1–42) aggregation by a thioflavin T-based fluorometric assay, and curcumin and ferulic acid were used as reference compounds.
An amount of 250 μg Aβ (1–42) was dissolved in 1 mL hexafluoroisopropanol (HFIP) and lyophilizated, then dissolved in 25 μL DMSO and 150 μL 50 mM phosphate buffer saline (PBS). For the self-induced assay, 10 μL of Aβ (1–42) was incubated with 10 μL test compounds, both at a final concentration of 20 μM, at 37 °C for 48 h. Then, 40 μL PBS and 100 μL 5 μM thioflavin T (ThT) in 50 mM glycine-NaOH buffer (pH 8.5) was added. […] The percent inhibition of the self-induced aggregation due to the presence of the test compound was calculated by the following expression: 100 − (IFi/IF0 × 100) where IFi and IF0 are the fluorescence intensities with and without test compound, respectively, minus the fluorescence intensities due to the respective blanks.

Data set [2] can be described thus: Cu2+-chelating properties assay by UV spectrometry. Format: physicochemical. As to conditions: 8d 40 μM with 10, 20, 40 μM CuCl2 in MeOH, UV 220–400 nm. As to the method: In recent years, there is mounting evidence to support the theory that endogenous copper can be involved as factors or cofactors in the etiopathogenesis of AD, and modulating Cu^2+ in the brain should be to the benefit of AD treatment. The chelating effect of 8d for Cu^2+ was studied by ultra violet (UV) spectrometry with wavelength ranging from 220 to 400 nm.
The complexing studies were determined using a UV spectrophotometer (Beckman Coulter Inc., Brea, CA, USA). Compound 8d (40 µM) in methanol was mixed with 10, 20, 40 µM CuCl2, and then incubated at room temperature for 5 min. The absorption spectra were recorded from 220 nm to 400 nm after incubation.

Data set [3] has as its target T1, AChE. Briefly: Kinetic analysis of AChE inhibition (Lineweaver-Burk). Format: biochemical. The note with it: Lineweaver-Burk reciprocal plots, six substrate concentrations. As to the method:
Kinetic characterization of AChE was performed as the reported method using six different substrate concentrations (50, 90, 150, 266, 452, and 904 μM). An amount of 60 µL PBS, 20 µL DTNB, 10 µL AChE, and 10 µL inhibitor were mixed together and pre-incubated for 10 min, followed by the addition of 20 μL different substrate and then incubated for 15 min. After that, 30 μL 1% SDS was added. Kinetic characterization of the hydrolysis of acetylthiocholine chloride catalyzed by AChE was done spectrometrically at 415 nm. A parallel control with no inhibitor in the mixture, allowed adjusting activities to be measured.

Another data set concerns Neuro-2A cells. Nature of the data set: Protective effect against Aβ-induced neurotoxicity, MTT viability assay. Format: cell-based. The note with it: 8d 5 or 10 μM with 10 μM Aβ (1–42), 48 h, p < 0.05. As to the method:
To investigate the protective effect of 8d against Aβ-induced cytotoxicity, 8d (0, 5 or 10 μM) and 10 μM Aβ (1–42) was directly added into the medium of the Neuro-2A cells. The cells were incubated for 48 h.
Neuro-2A cell were grown in dulbecco’s modified eagle medium (DMEM) plus 1% glutamine and 10% heat-inactivated fetal bovine serum. The assays were performed in 96-well microtiter plates. Cells were treated with or without lyophilizated Aβ (1–42) (10 μM), or different concentrations of 8d (5, 10 μM) combination and incubated for 48 h. Then, 10 µL of MTT (5 mg/mL) was added to each well and incubated for four hours, and then the liquid in the wells was removed. DMSO (150 µL) was added to each well. The absorbance was recorded using a microplate reader at a wavelength of 570 nm.
Neuroprotective effect of 8d were evaluated by cells treated with 8d at the concentration of 0, 5 or 10 μM in the presence of 10 μM Aβ for 48 h; Vehicle group was treated with solvent. The cell viability was assessed using the 3-[4,5-dimethylthylthiazol-2-yl]-2,5 diphenyltetrazoliumbromide (MTT) assay. Data are from three independent experiments and are expressed as the mean ± SD values. ** p < 0.01 compared to vehicle. * p < 0.05, represents significant differences from the control group.

T1 sequence (P22303 32-614): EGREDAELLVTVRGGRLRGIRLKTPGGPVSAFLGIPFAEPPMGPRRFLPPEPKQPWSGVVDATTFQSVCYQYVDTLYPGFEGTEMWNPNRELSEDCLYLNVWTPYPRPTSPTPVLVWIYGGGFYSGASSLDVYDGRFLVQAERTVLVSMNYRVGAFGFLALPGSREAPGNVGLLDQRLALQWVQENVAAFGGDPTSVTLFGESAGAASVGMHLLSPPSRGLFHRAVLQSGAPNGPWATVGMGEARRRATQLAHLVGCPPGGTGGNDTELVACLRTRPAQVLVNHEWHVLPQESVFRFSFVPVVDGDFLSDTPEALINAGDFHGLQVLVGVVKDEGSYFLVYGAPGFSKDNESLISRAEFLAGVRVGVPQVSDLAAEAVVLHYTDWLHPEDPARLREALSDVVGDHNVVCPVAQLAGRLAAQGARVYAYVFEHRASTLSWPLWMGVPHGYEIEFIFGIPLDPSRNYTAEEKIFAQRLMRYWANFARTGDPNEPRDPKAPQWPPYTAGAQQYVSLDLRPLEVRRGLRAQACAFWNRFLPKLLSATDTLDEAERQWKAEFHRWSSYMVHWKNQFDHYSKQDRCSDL
T2 sequence (P06276 29-602): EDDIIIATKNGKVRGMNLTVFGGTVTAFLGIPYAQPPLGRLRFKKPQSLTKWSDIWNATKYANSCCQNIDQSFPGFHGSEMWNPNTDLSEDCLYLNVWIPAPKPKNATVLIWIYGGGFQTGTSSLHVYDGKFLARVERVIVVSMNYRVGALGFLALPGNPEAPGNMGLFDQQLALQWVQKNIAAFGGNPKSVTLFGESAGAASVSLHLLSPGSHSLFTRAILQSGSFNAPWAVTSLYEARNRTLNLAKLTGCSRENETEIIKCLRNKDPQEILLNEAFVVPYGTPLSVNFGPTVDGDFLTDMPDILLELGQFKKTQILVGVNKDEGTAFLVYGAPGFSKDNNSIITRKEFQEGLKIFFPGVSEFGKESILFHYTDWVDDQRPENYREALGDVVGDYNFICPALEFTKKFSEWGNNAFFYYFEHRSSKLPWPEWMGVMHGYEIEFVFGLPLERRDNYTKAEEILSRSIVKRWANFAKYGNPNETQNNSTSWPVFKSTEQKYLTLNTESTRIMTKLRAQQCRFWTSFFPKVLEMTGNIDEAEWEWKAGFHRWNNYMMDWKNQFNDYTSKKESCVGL
T3 sequence (P05067 672-713): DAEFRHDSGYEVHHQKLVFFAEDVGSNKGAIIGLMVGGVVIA

One may read the IC50 as the midpoint of a concentration-inhibition curve. A high value points to lower potency. The term inhibition denotes how much of the control response was suppressed. For the compound `COC(=O)/C=C/c1ccc(OCCN2CCN(CC(=O)Nc3c4c(nc5ccccc35)CCCC4)CC2)c(OC)c1` [Compound 8a, Methyl (E)-3-(3-methoxy-4-(2-(4-(2-oxo-2-((1,2,3,4-tetrahydroacridin-9-yl)amino)ethyl)piperazin-1-yl)ethoxy)phenyl)acrylate], at AChE [1], the “Selectivity Index” value was found to be 0.660 and the IC50 worked out at 306 ± 12.4 nM. The IC50 against BuChE turned out to be 203 ± 35.7 nM. Further, on Aβ (1–42), testing at 20 µM gave an inhibition of 26.1 ± 4.5%.

As for `COC(=O)/C=C/c1ccc(OCCCN2CCN(CC(=O)Nc3c4c(nc5ccccc35)CCCC4)CC2)c(OC)c1` [Compound 8b, Methyl (E)-3-(3-methoxy-4-(3-(4-(2-oxo-2-((1,2,3,4-tetrahydroacridin-9-yl)amino)ethyl)piperazin-1-yl)propoxy)phenyl)acrylate], on AChE [1], the “Selectivity Index” value was 1.326 and the IC50 came out at 90.3 ± 7.3 nM. The compound also gave an IC50 on BuChE of 120 ± 12.5 nM. Further, the inhibition at 20 µM against Aβ (1–42) was 19.5 ± 2.7%.

As to `COC(=O)/C=C/c1ccc(OCCCCN2CCN(CC(=O)Nc3c4c(nc5ccccc35)CCCC4)CC2)c(OC)c1` [Compound 8c, Methyl (E)-3-(3-methoxy-4-(4-(4-(2-oxo-2-((1,2,3,4-tetrahydroacridin-9-yl)amino)ethyl)piperazin-1-yl)butoxy)phenyl)acrylate], at AChE [1], the “Selectivity Index” value is listed as 4.087 and the IC50 was determined as 52.7 ± 8.2 nM. This compound showed an IC50 on BuChE of 215 ± 33.7 nM. Also, the inhibition at 20 µM at Aβ (1–42) worked out at 18.5 ± 4%.

`COC(=O)/C=C/c1ccc(OCCCCCN2CCN(CC(=O)Nc3c4c(nc5ccccc35)CCCC4)CC2)c(OC)c1` [Compound 8d, Methyl (E)-3-(3-methoxy-4-((5-(4-(2-oxo-2-((1,2,3,4-tetrahydroacridin-9-yl)amino)ethyl)piperazin-1-yl)pentyl)oxy)phenyl)acrylate]: the “Selectivity Index” value at AChE [1] was determined as 1.733. Moreover, the IC50 against AChE [1] is 61.7 ± 5.2 nM; at BuChE, 107 ± 13.1 nM. Further, the inhibition at 20 µM against Aβ (1–42) is 37.2 ± 0.9%. The “chelating effect for Cu^2+ (in words)” value in data set [2] is on record as “complex 8d-Cu^2+ had been produced”. The “mechanism of AChE inhibition” value at AChE [3] is on record as “mixed-type inhibitors”. In addition, the “cell viability compared with Aβ-treated alone group (in words)” value with Neuro-2A cells is reported as “significant dose-dependent increase in cell viability”.

`COC(=O)/C=C/c1ccc(OCCCCCCN2CCN(CC(=O)Nc3c4c(nc5ccccc35)CCCC4)CC2)c(OC)c1` [Compound 8e, Methyl (E)-3-(3-methoxy-4-((6-(4-(2-oxo-2-((1,2,3,4-tetrahydroacridin-9-yl)amino)ethyl)piperazin-1-yl)hexyl)oxy)phenyl)acrylate]: at AChE [1], the “Selectivity Index” value is given as 1.059 and 184 ± 15.2 nM corresponded to half-maximal inhibition (IC50). The half-maximal inhibitory concentration (IC50) on BuChE amounted to 196 ± 3.5 nM. The compound further registered an inhibition at 20 µM on Aβ (1–42) of 35.1 ± 3.2%.

At Aβ (1–42), `COc1cc(/C=C/C(=O)CC(=O)/C=C/c2ccc(O)c(OC)c2)ccc1O` [curcumin, reference compound] came in with an inhibition at 20 µM of 37.3 ± 1.2%.

Turning to `COc1cc(/C=C/C(=O)O)ccc1O` [ferulic acid], at 20 µM the inhibition at Aβ (1–42) was 36.5 ± 3.6%.
